{"source": "patent US11236102B2", "about": "“Oxabicycloheptane prodrugs” (Lixte Biotechnology, Inc., priority 2015, dated 2022)", "assay": "in vivo", "parameters": "species or system SD rats", "protocol": "105 was dissolved in 4% NaHCO3 in saline for IV administration. The detailed procedure of dosing solution preparation was presented in Appendix I.\nThirteen (13) animals were placed on the study. The animals in IV arm were free access to food and water. One extra animal was used for blank liver and plasma generation (5 mL per animal). The resulting blank liver and plasma was then applied to the development of bioanalytical method and sample bioanalysis for the entire study.\nThe IV injection was conducted via foot dorsal vein. Animals were free access to food and water before dose.\nThe animal is restrained manually. Approximately 150 μL of blood/time point is collected into sodium heparin tube via cardiac puncture for terminal bleeding (anesthetized under carbon dioxide). Blood sample will be put on ice and centrifuged to obtain plasma sample (2000 g, 5 min under 4° C.) within 10 minutes.\nThe animal will be euthanized with carbon dioxide inhalation. Open abdominal cavity with scissor to expose internal organs. Hold the carcass in an upright position and allow the organs to fall forward. Cut the connective tissues and remove the organs. Then the organs are rinsed with cold saline, dried on filtrate paper, placed into a screw-top tube and weighed, snap frozen by placing into dry-ice immediately.\nPlasma and liver samples were stored at approximately −80° C. until analysis. The backup samples will be discarded after three weeks after in-life completion unless requested. The unused dosing solutions will be discarded within three weeks after completion of the study\nSoftware: The PK parameters were determined by non-compartmental model of non-compartmental analysis tool, Pharsight Phoenix WinNonlin® 6.2 software.\nConcentration data within 80%-120% of LLOQ was considered within normal instrumental variation and presented in the results. Terminal t1/2 calculation: Time points were automatic selected by “best fit” model for terminal half life estimation as the first option. Manual selection was applied when “best fit” could not well define the terminal phase.", "key": {"[1]": {"details": "IV 1 mg/kg, 0.25 hr, individual, 1 mg/kg"}, "[2]": {"details": "IV 1 mg/kg, 1 hr, individual, 1 mg/kg"}, "[3]": {"details": "IV 1 mg/kg, 2 hr, individual, 1 mg/kg"}}, "note": "“And” between values parts separate entries of the source, which are not always exact repeats. Equal values may be shown once. Read-outs that look alike come from different tables or passages of the source.", "data": [{"smiles": "CCN1CCN(C(=O)C2C3CCC(O3)C2C(=O)O)CC1", "note": "(stereo not drawn) [Compound 105]", "values": [{"measurement": "AUC(0-last) in liver", "setting": "105, IV 1 mg/kg, mean", "result": 1019, "unit": "ng·h/g"}, {"measurement": "Liver-plasma concentration ratio of 105", "setting": "[1]", "result": 0.646}, {"measurement": "liver concentration of 105", "setting": "[1]", "result": 988, "unit": "ng/g"}, {"measurement": "plasma concentration of 105", "setting": "[1]", "result": 1530, "unit": "ng/mL"}, {"measurement": "Liver-plasma concentration ratio of 105", "setting": "[2]", "result": 1.96}, {"measurement": "liver concentration of 105", "setting": "[2]", "result": 446, "unit": "ng/g"}, {"measurement": "plasma concentration of 105", "setting": "[2]", "result": 228, "unit": "ng/mL"}, {"measurement": "Liver-plasma concentration ratio of 105", "setting": "[3]", "result": "2.19 and 6.09"}, {"measurement": "liver concentration of 105", "setting": "[3]", "result": 131, "unit": "ng/g"}, {"measurement": "plasma concentration of 105", "setting": "[3]", "result": "45.2 ng/mL and 21.5 ng/mL"}, {"measurement": "liver concentration of 105", "setting": "IV 1 mg/kg, 6 hr, individual", "result": "BQL"}, {"measurement": "plasma concentration of 105", "setting": "IV 1 mg/kg, 6 hr, individual", "result": "BQL"}, {"measurement": "liver concentration of 105", "setting": "IV 1 mg/kg, 6 hr, mean", "result": "BQL"}, {"measurement": "plasma concentration of 105", "setting": "IV 1 mg/kg, 6 hr, mean", "result": "BQL"}, {"measurement": "liver concentration of 105", "setting": "IV 1 mg/kg, 10 hr, individual", "result": "BQL"}, {"measurement": "plasma concentration of 105", "setting": "IV 1 mg/kg, 10 hr, individual", "result": "BQL"}, {"measurement": "liver concentration of 105", "setting": "IV 1 mg/kg, 10 hr, mean", "result": "BQL"}, {"measurement": "plasma concentration of 105", "setting": "IV 1 mg/kg, 10 hr, mean", "result": "BQL"}, {"measurement": "liver concentration of 105", "setting": "IV 1 mg/kg, 24 hr, individual", "result": "BQL"}, {"measurement": "plasma concentration of 105", "setting": "IV 1 mg/kg, 24 hr, individual", "result": "BQL"}, {"measurement": "liver concentration of 105", "setting": "IV 1 mg/kg, 24 hr, mean", "result": "BQL"}, {"measurement": "plasma concentration of 105", "setting": "IV 1 mg/kg, 24 hr, mean", "result": "BQL"}, {"measurement": "Kp at 0.25 h", "setting": "male, SD, rat, in vivo, iv, 1 mg/kg, IV 1 mg/kg, 0.25 hr, individual, read-out: Liver-plasma concentration ratio of 105", "result": 0.554}, {"measurement": "concentration at 0.25 hr", "setting": "male, SD, rat, in vivo, iv, 1 mg/kg, IV 1 mg/kg, 0.25 hr, individual, read-out: liver concentration of 105", "result": 1070, "unit": "ng/g"}, {"measurement": "concentration at 0.25 hr", "setting": "male, SD, rat, in vivo, iv, 1 mg/kg, IV 1 mg/kg, 0.25 hr, individual, read-out: plasma concentration of 105", "result": 1930, "unit": "ng/mL"}, {"measurement": "Kp at 0.25 h", "setting": "male, SD, rat, in vivo, iv, 1 mg/kg, IV 1 mg/kg, 0.25 hr, mean, read-out: Liver-plasma concentration ratio of 105", "result": 0.6}, {"measurement": "concentration at 0.25 hr", "setting": "male, SD, rat, in vivo, iv, 1 mg/kg, IV 1 mg/kg, 0.25 hr, mean, read-out: liver concentration of 105", "result": 1030, "unit": "ng/g"}, {"measurement": "concentration at 0.25 hr", "setting": "male, SD, rat, in vivo, iv, 1 mg/kg, IV 1 mg/kg, 0.25 hr, mean, read-out: plasma concentration of 105", "result": 1730, "unit": "ng/mL"}, {"measurement": "Kp at 1 h", "setting": "male, SD, rat, in vivo, iv, 1 mg/kg, IV 1 mg/kg, 1 hr, individual, read-out: Liver-plasma concentration ratio of 105", "result": 2.19}, {"measurement": "concentration at 1 h", "setting": "male, SD, rat, in vivo, iv, 1 mg/kg, IV 1 mg/kg, 1 hr, individual, read-out: liver concentration of 105", "result": 576, "unit": "ng/g"}, {"measurement": "concentration at 1 hr", "setting": "male, SD, rat, in vivo, iv, 1 mg/kg, IV 1 mg/kg, 1 hr, individual, read-out: plasma concentration of 105", "result": 263, "unit": "ng/mL"}, {"measurement": "Kp at 1 h", "setting": "male, SD, rat, in vivo, iv, 1 mg/kg, IV 1 mg/kg, 1 hr, mean, read-out: Liver-plasma concentration ratio of 105", "result": 2.07}, {"measurement": "concentration at 1 h", "setting": "male, SD, rat, in vivo, iv, 1 mg/kg, IV 1 mg/kg, 1 hr, mean, read-out: liver concentration of 105", "result": 511, "unit": "ng/g"}, {"measurement": "concentration at 1 hr", "setting": "male, SD, rat, in vivo, iv, 1 mg/kg, IV 1 mg/kg, 1 hr, mean, read-out: plasma concentration of 105", "result": 246, "unit": "ng/mL"}, {"measurement": "concentration at 2 h", "setting": "male, SD, rat, in vivo, iv, 1 mg/kg, IV 1 mg/kg, 2 hr, individual, read-out: liver concentration of 105", "result": 99.2, "unit": "ng/g"}, {"measurement": "Kp at 2 h", "setting": "male, SD, rat, in vivo, iv, 1 mg/kg, IV 1 mg/kg, 2 hr, mean, read-out: Liver-plasma concentration ratio of 105", "result": 4.14}, {"measurement": "concentration at 2 h", "setting": "male, SD, rat, in vivo, iv, 1 mg/kg, IV 1 mg/kg, 2 hr, mean, read-out: liver concentration of 105", "result": 115, "unit": "ng/g"}, {"measurement": "concentration at 2 hr", "setting": "male, SD, rat, in vivo, iv, 1 mg/kg, IV 1 mg/kg, 2 hr, mean, read-out: plasma concentration of 105", "result": 33.4, "unit": "ng/mL"}, {"measurement": "AUC(0-t)", "setting": "male, SD, rat, in vivo, 105 in liver, IV 1 mg/kg, mean, read-out: AUC(0-t)", "result": 1020}, {"measurement": "Cmax", "setting": "male, SD, rat, in vivo, 105 in liver, IV 1 mg/kg, mean, read-out: Cmax", "result": 1030, "unit": "ng/mL"}, {"measurement": "MRT inf", "setting": "male, SD, rat, in vivo, 105 in plasma, IV 1 mg/kg, mean", "result": 19.7, "unit": "min"}, {"measurement": "Cmax", "setting": "male, Sprague-Dawley, rat, in vivo, 105, IV 1 mg/kg, mean, read-out: Cmax in liver", "result": 1030, "unit": "ng/g"}, {"measurement": "Tmax", "setting": "male, Sprague-Dawley, rat, in vivo, 105 in liver, IV 1 mg/kg, mean", "result": 15, "unit": "min"}, {"measurement": "clearance", "setting": "male, Sprague-Dawley, rat, in vivo, 105 in plasma, IV 1 mg/kg, mean", "result": 10.9, "unit": "mL/min/kg"}, {"measurement": "AUC(0-t)", "setting": "male, Sprague-Dawley, rat, in vivo, 105 in plasma, IV 1 mg/kg, mean, read-out: AUC(0-t) (AUClast)", "result": 1510, "unit": "ng·h/mL"}, {"measurement": "AUC(0-inf)", "setting": "male, Sprague-Dawley, rat, in vivo, 105 in plasma, IV 1 mg/kg, mean, read-out: AUC(0-∞) (AUCINF)", "result": 1530, "unit": "ng·h/mL"}, {"measurement": "Vd", "setting": "male, Sprague-Dawley, rat, in vivo, 105 in plasma, IV 1 mg/kg, mean, read-out: Vss", "result": 0.215, "unit": "L/kg"}, {"measurement": "half-life", "setting": "male, Sprague-Dawley, rat, in vivo, 105 in plasma, IV 1 mg/kg, mean, read-out: t1/2z (terminal half life) (converted)", "result": 18.5, "unit": "min"}]}]}
